In PubChem BioAssay AID624491 (Broad Institute, 2012):
Active and inactive are the calls of the source.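 The calls were made as follows: active = fitted curve crossing a set activation limit at or below the highest valid dose tested; inconclusive = flat fit at 30 to 70% activation, or poor fit; inactive = the rest, including signal decreases.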

System: D54 ERlucT glycosylation luciferase reporter, luminescence, 24 h
Experiment: N-linked glycosylation inhibitors, luciferase reporter, dose response, D54 ERlucT cells, luminescence, cherry-picks (AID 624491);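 also: signal gain reflects blocked N-linked glycosylation of a luciferase reporter; actives raise luciferase signal so AC26 marks activators of the reporter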

Compound	AC26
CC1(C(=O)NCc2ccco2)Cc2c(-c3cccc(C(F)(F)F)c3)ccnc2O1 (stereo not drawn)	7.71 µM
CC12CC[C@H]3[C@@H](CCC4(O)C[C@H](O)CCC34/C=N/NC(=O)c3ccccc3[N+](=O)[O-])C1(O)CCC2C1=CC(=O)OC1 (stereo partly drawn)	4.28 µM
COc1ccc(-c2ccnc(-c3ccncc3)n2)cc1	1.39 µM
CC(=O)Nc1ccc2cc3ccc(NC(C)=O)cc3nc2c1	5.21 µM
O=C(O)c1ccc(N/N=C/c2ccc(-c3ccc(Cl)cc3Cl)o2)cc1	5.33 µM
CCCNC(=O)c1cc(-c2ccco2)on1	3.78 µM
COc1ccc(CCCNC(=O)C2Cc3c(-c4cccc(C(C)=O)c4)ccnc3O2)cc1 (stereo not drawn)	12.6 µM
COc1ccc(C(=O)NCC(c2ccco2)N2CCc3ccccc32)cc1 (stereo not drawn)	2.3 µM
COc1ccccc1-n1cnc2cc(NCc3cccs3)ccc21	0.141 µM
Cc1cc(C)c2sc(NC(=O)c3ccc([N+](=O)[O-])o3)nc2c1	6.64 µM
O=C(N/N=C/c1ccco1)c1cc(-c2ccncc2)nc2ccccc12	0.285 µM
C=CCN(CC=C)S(=O)(=O)c1ccc(C(=O)Nc2nc3c(s2)CCc2ccccc2-3)cc1	6.79 µM
CC(C)c1c(C(=O)Nc2ccccc2)c(-c2ccccc2)c(-c2ccc(F)cc2)n1CC[C@@H](O)C[C@@H](O)CC(=O)O	0.0682 µM
COc1ccc2[nH]c(C(=O)N3CCN(Cc4ccccc4)CC3)cc2c1OC	1.13 µM
Cc1nc2c3cc(Cl)ccc3n(CCN3CCCCC3)c2s1	0.896 µM
Cn1cc(/C=N/n2cnc3scc(-c4ccc(Cl)cc4)c3c2=O)c2ccccc21	0.0584 µM
CCN(CC)CCNC(=O)c1cc2c(=O)n(C)c3ccccc3c2s1	3.94 µM
O=C1[C@H]2[C@@H](c3ccc(F)cc3)N3C(=O)N(c4cccc(Br)c4)C(=O)[C@@]3(Cc3ccccc3)[C@H]2C(=O)N1C1CCCCC1	0.114 µM
O=C(Nc1ncccc1O)c1ccc(C(=O)c2ccccc2)cc1	5.18 µM
COc1ccc(NC(=O)C2(C)Cc3c(-c4cccc(C(N)=O)c4)ccnc3O2)cc1 (stereo not drawn)	2.32 µM
O=C(NCc1ccccc1)C1Cc2c(-c3cccc(F)c3)ccnc2O1 (stereo not drawn)	0.0112 µM
Nc1ccc2nc(-c3ccccc3)c(-c3ccccc3)nc2c1	1.48 µM

Compound	AC26
COc1ccc(C2Nc3ccc4ccccc4c3-c3c2c(=O)oc2ccccc32)cc1 (stereo not drawn)	2.07 µM
COc1cccc(NC(=O)CCCOc2cc(=O)n(C)c3ccccc23)c1	4.13 µM
COc1ccc(C(=O)CSc2nn3c(=O)c(C(C)(C)C)nnc3s2)cc1	3.87 µM
COc1ccc(/C=N/NC(=O)c2nc(-c3ccccc3)cc(-c3ccccc3)n2)cc1O	0.685 µM
Cc1cc(=O)[nH]c(N/N=C/c2cc(C)n(CC(F)(F)F)c2C)n1	0.0476 µM
COc1cc2c(cc1OC)C(c1cccs1)N(C(=O)c1cccnc1)CC2 (stereo not drawn)	0.806 µM
CC=Cc1cc2c(c(=O)o1)C(=O)C(O)C(C)O2 (stereo not drawn)	5.3 µM
COc1ccc(CNCC(=O)Nc2ccccc2-n2cccc2)cc1	0.922 µM
Cc1nc2ccccc2c2oc(C(=O)NCCCN3CC(C)CC(C)C3)cc12 (stereo not drawn)	5.38 µM
CC(=O)c1ccc(Oc2cc(C)nc(-n3nc(C)cc3C)n2)cc1	0.726 µM
Oc1ccc(C2=NNC(=NCc3ccc4c(c3)OCO4)SC2)c(O)c1	4.89 µM
Cc1ccc(C(=O)Nc2cc(S(=O)(=O)N3CCOCC3)ccc2N2CCCC2)cc1	1.31 µM
C[C@@]12C(=O)Nc3cc(Cl)ccc3C(=O)N1[C@H]1c3cc(Br)ccc3OC[C@@H]1[C@@H]2c1ccccc1	0.961 µM
Cc1ccc(N2C(=O)Nc3ccccc3C2(O)C(=O)N2CCN(c3ccccn3)CC2)cc1C (stereo not drawn)	0.33 µM
Cc1ccccc1OCC(O)CN1CCN(CCN2C(=O)c3cccc4cccc(c34)C2=O)CC1 (stereo not drawn)	13.5 µM
Cc1ccc(OCCNC(=O)C(=O)NCc2ccco2)cc1	6.1 µM
O=C(CN1CCC(O)(c2cccc(F)c2)CC1)NCCc1c[nH]c2ccccc12	1.15 µM
COc1cc(C(=O)N/N=C/c2ccc3c(c2)c2ccccc2n3C)ccc1O	4.07 µM
COC(=O)c1ccc(C)c(NC(=O)CN(c2cc(OC)ccc2OC)S(C)(=O)=O)c1	0.641 µM
COc1cc(C)cc(C(=O)C=Cc2ccccc2)c1O	4.92 µM
Cc1ccc(/C=N/NC(=O)c2cc(-c3cccnc3)nc3ccccc23)cc1	1.25 µM
CCCn1c(CN2CCN(C(=O)OCC)CC2)nc2cc(NC(=O)CC)ccc21	9.15 µM

Compound	AC26
COC(=O)c1ccc(C(=O)NC2CCCc3c2cnn3-c2ccccc2F)nc1 (stereo not drawn)	4.14 µM
Cn1ncc2c(O/N=C(\N)c3ccc(C(F)(F)F)cc3)ncnc21	0.445 µM
CC(C)(C)c1ccc(OCC(=O)Nc2ccncc2)c(Br)c1	4.13 µM
Nc1sc(-c2ccccc2)cc1-c1n[nH]c(=S)n1C1CCCCC1	10.7 µM
COc1ccc(OC)c(S(=O)(=O)Nc2ccc(-c3ccc4nnc(C)n4n3)cc2)c1	3.19 µM
Clc1ccc(C2=Nn3c(nnc3-c3cc(-c4ccccc4)n[nH]3)SC2)cc1	5.13 µM
Cc1cccc2c1NC(=O)/C2=C\C(=O)c1cccs1	4.26 µM
COc1cc(C(=O)c2cocc2C(=O)c2ccc3c(c2)OCO3)cc(OC)c1OC	0.111 µM
Cc1ccc(COc2cccc(/C=N/NC(=O)c3nnn(-c4nonc4N)c3C)c2)cc1	1.16 µM
CNc1ccc(Br)cc(C(=O)/C=C/c2ccc(Cl)cc2Cl)c1=O	8.89 µM
Cc1ccc(O)c(C(=O)C=Cc2ccccc2)c1	1.21 µM
CC1(C(=O)NCc2cccs2)Cc2c(-c3cccc(C(F)(F)F)c3)ccnc2O1 (stereo not drawn)	15.1 µM
COc1ccc(N2CCc3c(C)nc4c(OC)cc(OC)cc4c32)cc1	3.77 µM
CC(=O)Nc1sc(NC(=O)c2ccccc2)nc1-c1cccs1	3.45 µM
COC(=O)c1ccc(S(=O)(=O)N2CCc3ccccc32)cc1	10.6 µM
COC(=O)C1=C(c2cc3ccccc3o2)C[C@@H]2CC[C@H]1N2C(=O)N1CCOCC1	> 19.5 µM (inactive)
Nc1ncnc(Sc2ccc(Cl)cc2)c1[N+](=O)[O-]	13.4 µM
Cc1cc(C)nc(/N=C(\N)Nc2ccc(CC(=O)OC(C)C)cc2)n1	5.89 µM
CCCOC(=O)c1[nH]c2c(c1C)C(=O)CC(c1cccs1)C2 (stereo not drawn)	0.623 µM
Cc1ccc(C(=O)NC(=C(Cl)Cl)S(=O)(=O)c2ccc(C)cc2)cc1	2.55 µM
CNC(=O)c1cccc(NC(=O)c2ccccc2OCc2ccccc2)c1	0.355 µM
COc1ccc(/C=C/C(=O)c2ccc(Cl)s2)cc1O	4.73 µM

Compound	AC26
CC(=O)/C=C/c1ccccc1Oc1c(F)c(F)nc(F)c1F	0.183 µM
Cc1ccc(NC(=O)C(Cc2ccccc2)N2C(=O)C3C4CCC(C4)C3C2=O)cc1Cl (stereo not drawn)	3.24 µM
CN(C)CCCNc1c2c(nc3ccccc13)CCC2	9.56 µM
CCOC(=O)c1[nH]c(C)c(C(=O)OCC(=O)NC(C)c2ccc(F)cc2)c1C (stereo not drawn)	3.15 µM
COc1ccc(-c2cc(-c3ccc(O)cc3)nc(N)c2C#N)cc1OC	4.05 µM
O=C(c1ncn(Cc2ccccc2)c1C(=O)N1CCN(c2ccccc2)CC1)N1CCN(c2ccccc2)CC1	0.513 µM
Cc1cc(C)n(-c2nnc3n2N=C(c2c[nH]c4ccccc24)CS3)n1	3.51 µM
O=C(N/N=C\c1ccc(CNS(=O)(=O)c2ccc(Cl)cc2)o1)C(=O)Nc1ccc(Oc2ccccc2)cc1	4.89 µM
COc1ccc(C(=O)C=Cc2ccc(OCc3ccccc3)c(OC)c2)cc1OC	2.69 µM
COc1ccccc1-c1cc(C(=O)Nc2cc(C)nn2-c2ccccc2)no1	0.76 µM
COCCNc1nc(NCc2ccccc2)nc2ccsc12	0.136 µM
COCCNC(=O)c1cc(-c2cccs2)on1	4.6 µM
CN1CCc2nc3sc(C#N)c(N)c3c(-c3cccs3)c2C1	0.261 µM
Cc1c(C(=O)OCC(C)C)[nH]c2c1C(=O)CC(c1cccs1)C2 (stereo not drawn)	1.17 µM
O=C(NC(=C(Cl)Cl)S(=O)(=O)c1ccc(Cl)cc1)c1ccccc1	0.594 µM
Cc1ccc(-n2nc(C)c(NC(=O)CCl)c2C)cc1C	0.653 µM
Cc1cccn2c(=O)c3cc(C(=O)NCc4ccco4)c(=N)n(CCc4ccccc4)c3nc12	1.17 µM
OC1CCCN(Cc2ccc3ccc4cccc5ccc2c3c45)C1 (stereo not drawn)	4.27 µM
COc1ccc(-c2nc3c(C(=O)NCCN(C)C)cccc3c3ccccc23)cc1	4.16 µM
CCN(CC)c1ccc(/C=N/NC(=O)c2cnccn2)cc1	0.78 µM
CCOc1ccc(Nc2nc(N(C)c3ccccc3)nc(N)c2[N+](=O)[O-])cc1	0.0921 µM
O=S(=O)([N-]c1nc2ccccc2nc1-n1cc[n+](Cc2ccccc2)c1)c1ccc(Br)cc1	0.236 µM

Compound	AC26
CCC12CCC3c4ccc(O)cc4CCC3C1CC(O)C2O (stereo not drawn)	10 µM
COc1cc(OC)c2c(-c3cccc(-c4ccoc4)c3)cc(=O)oc2c1	7.64 µM
COC(=O)c1cc(=O)n(-c2ccc(F)cc2)c(=Nc2ccc(F)cc2)s1	4.23 µM
COc1cc2c(cc1OC)C(c1cccs1)N(C(=O)c1cccc(S(=O)(=O)N(C)C)c1)CC2 (stereo not drawn)	1.32 µM
O=C(c1cccs1)N1CCC(c2nc3c(nnn3Cc3cccc(Cl)c3)c(=O)[nH]2)CC1	0.217 µM
OC1CCCN(Cc2c3ccccc3cc3ccccc23)C1 (stereo not drawn)	8.75 µM
COc1cc(F)ccc1-c1csc(C(NC(C)=O)c2ccc(F)c(F)c2)n1 (stereo not drawn)	0.681 µM
O=C(NCCN1C(=O)S/C(=C\c2ccc(Cl)cc2Cl)C1=O)C1=COCCO1	> 19.5 µM (inactive)
CCOc1ccc(NC(=S)NC(=O)/C=C/c2ccc(C)cc2)c([N+](=O)[O-])c1	3.93 µM
CNc1ncnc(Sc2ccc(Cl)cc2)c1[N+](=O)[O-]	4.54 µM
CCCCCCC(=O)N(O)C1CC(=O)N(Cc2ccccc2)C1=O (stereo not drawn)	6.2 µM
Cc1ccc(-c2nn3c(C)nnc3c3ccccc23)cc1S(=O)(=O)N(C)CCO	4.21 µM
CCN(CC)c1ccc(/C=N/n2nnnc2N)c(O)c1	3.41 µM
CCNc1ccc(C(=O)OCC)cc1NC(=O)c1cccc(N(C)C)c1	3.16 µM
CC(C)c1ccc(NC(=O)CN2C(=O)NC3(CCCCCCC3)C2=O)cc1	1.21 µM
COc1ccc([C@@H]2[C@@H]3C(=O)N(C(C)(C)C)C(=O)[C@@H]3[C@]3(Cc4ccccc4)C(=O)N(c4cccc(Br)c4)C(=O)N23)cc1	1.6 µM
CN(C)c1ccc(-c2ccnc3c2CC(C)(C(=O)NCc2ccccc2)O3)cc1 (stereo not drawn)	5.53 µM
CCn1c2ccccc2c2cc(NC(=O)COC(=O)Cc3cn4ccsc4n3)ccc21	1.79 µM
COc1cc2nc(NC(=O)c3ccc(F)cc3Cl)sc(=O)c2cc1OC	1.9 µM
OCCCNc1c2ccccc2nc2ccccc12	0.467 µM
